Source: article PMC4015918, “Conjugation to a SMAC mimetic potentiates sigma-2 ligand induced tumor cell death in ovarian cancer” (Molecular Cancer, 2014)

Key:
[1] = biological target: T1, sigma-2 receptor (Rattus norvegicus, UniProt Q5U3Y7); experiment: Sigma-2 receptor binding, [3H](+)-DTG displacement in rat liver membrane homogenates
T1 construct: guinea pig brain (sigma-1 assay) or rat liver (sigma-2 assay) membrane homogenates; from tissue; host or cells: rat liver membrane homogenate
T1 sequence (Q5U3Y7 1-176): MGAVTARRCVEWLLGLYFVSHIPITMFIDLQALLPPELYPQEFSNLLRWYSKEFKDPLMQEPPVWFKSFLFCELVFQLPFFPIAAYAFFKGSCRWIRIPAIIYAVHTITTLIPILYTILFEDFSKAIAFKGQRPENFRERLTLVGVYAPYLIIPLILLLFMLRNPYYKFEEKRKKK
Procedure: In order to verify its unaltered target recognition properties, the binding affinity of SW IV-134 to the sigma-2 receptor was determined using previously established methods employing rat liver membrane homogenates (see M&M and Ref [19] for details on receptor binding determinations). […] As another means to probe for the ability of SW IV-134 to bind to the sigma-2 receptor, we performed a competition assay using intact ovarian cancer cells and the fluorescently labeled SW43 homolog SW120 [21].
The sigma-1 and sigma-2 receptor binding affinities of SW IV-134 were determined as previously described. […] Each filter was washed three times with 200 μL of ice-cold wash buffer, and the bound radioactivity quantified using a Wallac 1450 MicroBeta liquid scintillation counter (Perkin Elmer, Boston, MA). Nonspecific binding was determined in the presence of 10 μM cold haloperidol. […]
Table S1. […] The sigma-1 and sigma-2 receptor binding affinities of S W I V-134 were determined as previously described (22). For details see also the Materials and Methods section. a Mean ± S .E .M .K i values were determined by at least three ex periments. b Ki for inhibiting the binding of [ 3H] […]

[2] = tested on: NIK; experiment: Western blot for NF-қB-inducing kinase (NIK); assay type: cell-based; conditions: SKOV3 cells, 10 μM, 4 hours
Procedure: (§1) Figure 4 SW IV-134 engages in SMAC-dependent pathway activation. (A) SKOV3 cells were treated with vehicle only (Ctrl.), SW43 (10 μM), and SW IV-134 (10 μM) for 4 hours and cell lysates were subjected to Western blot analysis using antibodies against XIAP, cIAP-1, cIAP-2, NF-қB and NIK. While XIAP seems unaffected under the conditions used, cIAP-1 and cIAP-2 proteins are readily undetectable shortly post treatment. SW IV-134 treatment also leads to accumulation of NF-қB inducing kinase (NIK) and activation of NF-қB pathway. (B) SKOV3 cells were treated with SW IV-134 at the indicated doses either alone or in the presence of proteasome inhibitor MG132 (20 μM) for 18 hours. […] Cell viability was determined as described in the experimental methods (p < 0.011, Student’s t-test).
Cells were lysed in radioimmunoprecipitation assay buffer [50 mM Tris, 150 mM sodium chloride, 1.0 mM EDTA, 1% Nonidet P40, and 0.25% SDS (pH 7.0)], supplemented with complete protease inhibitor cocktail (Roche, Mannheim) and phosphatase inhibitor cocktail 1 (Sigma Chemical Co., St. Louis, MO). The protein concentration was determined using a BioRad Dc protein assay kit (Bio-Rad Laboratories, Hercules, CA). Lysates containing 30 μg of protein were run on a 12% polyacrylamide gel and transferred to a PVDF membrane (Bio-Rad Laboratories, Hercules, CA). […]

[3] = tested on: SKOV3 cells; experiment: SKOV3 cell viability (CellTiter-Glo) with SW IV-134 alone or with pathway blockers; assay type: cell-based
Procedure: Figure 3 Treatment with SW IV-134 results in caspase-mediated cell death. (A) Cells were treated with vehicle only (Ctrl.), SW43 (10 μM), and SW IV-134 (10 μM) for 24 hours. Cell lysates were subjected to Western blot analysis, and probed with antibodies specific for the precursors and activated forms of caspases 8, 9, and 3. (B) SKOV3 cells were treated with SW IV-134 at indicated doses either alone or in the presence of the pan-caspase inhibitor Z-VAD-FMK (20 μM) for 18 hours. Cell viability was determined by CellTiter-Glo assays (p < 0.018, Student’s t-test).
as §1
Figure 5 SW IV-134 induces activation of the TNFα-dependent extrinsic death pathway. (A) Quantitative real-time PCR analysis of TNFα mRNA expression was done on RNA samples derived from SKOV3 cells treated with SW IV-134 (1 μM and 3 μM) for indicated time periods. All values were normalized to a GAPDH internal control (p < 0.0001, one-way ANOVA). […] Cell viability was determined as described in the experimental methods (p < 0.019, Student’s t-test).
Cells (1 × 10^4) were seeded into 96 well plates. […] Cell viability was determined 18 hours after treatment using CellTiter-Glo Luminiscent Viability Assay (Promega, Madison, WI). Data were recorded with a SpectraMax Gemini microplate spectrofluorometer, Molecular Devices (Silicon Valley, CA).

Row | Structure (SMILES) | Ki [1] [nM] | Accumulation of NIK [2] | Cell death induced by SW IV-134 in the presence of TNFα-blocking antibody ([3]; SKOV3, 18 hours) | SW IV-134 mediated cell death in the presence of proteasome inhibitor MG132 ([3]; SKOV3, MG132 20 μM, 18 hours) | SW IV-134 induced cell death in the presence of pan-caspase inhibitor Z-VAD-FMK ([3]; SKOV3, Z-VAD-FMK 20 μM, 18 hours)
1 | COc1ccc(C)cc1NC(=O)OC1CC2CCCC(C1)N2CCCCCCCCCCN (stereo not shown) [SW43, reference compound] | 7.1 ± 1.3 | not seen |  |  | 
2 | COc1ccc(C)cc1NC(=O)OC1CC2CCCC(C1)N2CCCCCCCCCCN[C@@H](C)C(=O)N[C@H](C(=O)N1CCC[C@H]1C(=O)N[C@@H]1CCCc2ccccc21)C(C)(C)C (stereo partly shown) [SW IV-134] | 22.6 ± 1.8 | accumulation of NIK | significant protection from cell death | significantly reduced | significantly reduced
